The source of these data is US6703382B2, “Small molecule inhibitors targeted at Bcl-2” (Georgetown University Medical Center, priority 2000, dated 2004).

Experiment [1] relates to MDA-231 cells. The experiment is described as follows: Annexin-V FACS apoptosis assay, MDA-231. Format: cell-based, human. The note with it: 24 hours. On the procedure:
(§1) The Annexin-V FACS assay yields a more quantitative assessment of the ability of Formula II to induce of apoptosis in HL-60 and MDA-231 cells. MDA-231 cells treated with 0 (untreated), 4 and 10 μM of Formula II for 24 hours provide 0, 13% and 20.0% apoptotic cells, respectively, while HL-60 cells treated with 0, 5, 10, and 20 μM of Formula II for 24 hours provide 0, 24%, 31% and 67% of apoptotic cells, respectively (FIG. 3). Therefore, Formula II induces apoptosis in a highly dose-dependent manner in MDA-231 and HL-60 cell lines with Bcl-2 protein overexpression.

Experiment [2] concerns MDA-453 cells. Description: Hoechst Dye apoptosis assay, MDA-453. The class given is cell-based, human. The note with it: 10 μM, 12 hours, MDA-453, low Bcl-2 expression. The source says: (§2) Bcl-2 protein expression in human breast and other cancer cell line is characterized herein. Cell lines MCF-7, MDA-231 and MDA-361 express high levels of Bcl-2; MDA-468, BT474 and MDA-435 express median levels. […] Human myeloid leukemia cell HL-60 expresses the highest level of Bcl-2 protein among all the cell lines examined. Accordingly, MDA-231 and HL-60 cell lines with high Bcl-2 expression are positive cells and MDA-453 and T47D are negative control cells. The level of Bcl-2 protein expression is detected by Western blotting.
(§3) Using a Hoechst Dye assay, cells are treated at different doses for 12 hours and apoptotic cells are visually identified and counted under the microscope. Induction of apoptosis is evident after the treatment with Formula II at 10 μM in MDA-453 or T 47D cell lines, cells with low Bcl-2 expression.

Experiment [3] deals with T 47D cells. Description: Hoechst Dye apoptosis assay, T47D. The note with it: 10 μM, 12 hours, low Bcl-2 expression. Format: cell-based, human.
From the text: as §2, §3

Experiment [4] deals with Bcl-2 (GST-fused soluble protein) / Flu-Bak-BH3 peptide (Homo sapiens, UniProt P10415). The note with it: competitive FP assay, FIG. 1.
For experiment [5], the system named is HL-60 cells. Description: Hoechst Dye apoptosis assay, HL-60. Format: cell-based, human. To be noted: 10 μM, 12 hours, HL-60, high Bcl-2 expression.
From the text: as §2, §3

The subject of experiment [6] is MDA-231 cells. The experiment is described as follows: Hoechst Dye apoptosis assay, MDA-231. The class given is cell-based, human. To be noted: 10 μM, 12 hours, MDA-231, high Bcl-2 expression.
From the text: as §2, §3

Experiment [7] has as its system MDA-231 cells. The experiment is described as follows: Trypan-blue exclusion cell survival assay, MDA-231. To be noted: Homo sapiens, MDA-MB-231; MDA-231, trypan-blue exclusion; read-out: cell killing IC50. Format: cell-based. On the procedure:
(§4) FIG. 3. Illustrated the effects of the compound of formula II on cell viability. Cells are plated in 24-well plates, incubated with said compound at appropriate concentrations for 14 hr. Cell viability is determined by trypan blue exclusion with hemocytometer. Percent of viable cells, as compared with untreated cells, is plotted against drug concentration.
(§5) The ability of Formula II to inhibit cell viability is highly specific and correlates well with the Bcl-2 protein expression level in these cancer cells.

Experiment [8] relates to HL-60 cells. Description: Trypan-blue exclusion cell survival assay, HL-60. Format: cell-based. To be noted: Homo sapiens; HL-60, trypan-blue exclusion; read-out: cell killing IC50. On the procedure:
as §4, §5

The subject of experiment [9] is HL-60 cells. Description: Annexin-V FACS apoptosis assay, HL-60. The class given is cell-based, human. To be noted: 24 hours. The method, then:
as §1

By IC50 is commonly meant the midpoint of a concentration-inhibition curve.

The structures appear in SMILES notation.

Sequence of Bcl-2 (GST-fused soluble protein) / Flu-Bak-BH3 peptide (P10415 1-205 limits assumed): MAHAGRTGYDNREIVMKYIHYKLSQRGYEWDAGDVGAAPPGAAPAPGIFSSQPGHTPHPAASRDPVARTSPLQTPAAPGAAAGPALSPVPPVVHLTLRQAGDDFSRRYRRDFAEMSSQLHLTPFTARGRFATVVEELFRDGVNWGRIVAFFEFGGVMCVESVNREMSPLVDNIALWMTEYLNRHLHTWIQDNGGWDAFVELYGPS

`COc1ccc2c(c1)CCc1cc(OC)ccc1[N+]([O-])=[N+]2[O-]` [Formula II, 2,9-dimethoxy-11,12-dihydrodibenzo[c,g][1,2] diazocine-5,6-dioxide]: the apoptotic cells in experiment [1] (MDA-231, 4 μM) came to 13%; in experiment [1] (MDA-231, 10 μM), 20.0%; in [9] (HL-60, 5 μM), 24%; in experiment [9] (HL-60, 10 μM), 31%; in experiment [9] (HL-60, 20 μM) it was 67%. The induction of apoptosis entry was “evident” in experiment [2], “evident” in [3], “significant apoptosis” in experiment [5] and “significant apoptosis” in experiment [6]. Moreover, the “inhibition of the binding of the Bak-BH3 peptide to Bcl-2 in vitro” value in [4] is “inhibits the binding”. Moreover, the figures for the IC50 in [7] and in [8] were 15 µM and 12 µM, respectively.
